Data: paper PMC3673949, “Small Molecule R1498 as a Well-Tolerated and Orally Active Kinase Inhibitor for Hepatocellular Carcinoma and Gastric Cancer Treatment via Targeting Angiogenesis and Mitosis Pathways” (PLoS ONE, 2013)

Tests used:
[1] = system: phospho-Aurora kinase A (T288); experiment: Immunofluorescence / western blot of Aurora A activity marker in SGC-7901; assay type: cell-based, human
Method: Cell lysate was prepared in RIPA buffer and quantified by the bicinchoninic acid (BCA) method (Pierce, Rockford, IL). Thirty micrograms of protein per sample was loaded onto a 4∼12% NuPAGE® Novex SDS gel (Invitrogen). The protein was transferred by an iBlot® dry blotting device (Invitrogen) onto nitrocellulose membranes. After blocking nonspecific binding with TBS/Tween20 (0.1%) (TBS/T) containing 5% non-fat milk for 1 h at room temperature, the membrane was incubated in phospho-Aurora A (Thr288) (C39D8) rabbit monoclonal antibody (Cell Signaling Technology, CST #3079, Beverly, MA) or phospho-Histone H3 (Ser10) rabbit polyclonal antibody (CST#9701) (1∶1000 in TBS/T containing 3% bovine serum albumin (BSA), and gently shaken at 4°C overnight. The membrane was washed with TBS/T three times to remove the unbound antibody, then incubated with the secondary antibody (HRP-conjugated goat anti-mouse IgG or goat anti-rabbit IgG, 1∶10000, KangChen Biotech, Shanghai, China) for 1 h at room temperature, respectively. Protein bands were visualized with an enhanced chemiluminescence (ECL) kit (Pierce, Rockford, IL). […]

GC and HCC xenografts = experiment: Panel of GC and HCC xenografts, comparison with sorafenib; assay type: in vivo, BALB/C nu/nu nude mice
Method: Tumor cells were inoculated into the right flank of BALB/C nu/nu female nude mice (5∼6 weeks, 16∼18 g, obtained from Sino-British SIPPR/BK Lab. Animal Ltd, Shanghai, China) at optimal density based on our in-house validation study. After the tumor was established and reached 100∼150 mm^3, the mice were randomized into ten mice per group and received treatment according to the schedule. The tumor growth was recorded three times a week with the measurement of length (L) and width (W) by caliper, and calculated as tumor volume (TV, mm^3) = 0.5*L*W*W (mm). […] The tumor regression of individual mouse was defined - the tumor volume at the end was less than the tumor volume when treatment was initiated.

phospho-Aurora A (T288) = experiment: Immunohistochemistry of BEL-7402 tumors, Aurora kinase A activity marker; assay type: in vivo, BALB/C nu/nu nude mice; details: BEL-7402 tumors from efficacy study
Method: The 8 µm paraffin embedded tumor tissue slides prepared from tumor of in vivo efficacy studies were heated in a dry oven at 60°C for 1 hour, then deparaffinized and hydrolyzed by Leica autostainer XL ST5010 at room temperature. Antigen retrieval was carried out at 95∼99°C in citrate buffer (0.01 M, pH 6.0) heated by a medical microwave at 92–98°C for 5 min, then cooled down to room temperature. Then peroxidase-blocking reagent (DAKO, DK-2600, Glostrup Denmark) was applied to quench the endogenous peroxidase. The slides were incubated in blocking serum for 20 min, then covered by 100 µL phospho-Aurora A (Thr288) (C39D8) rabbit mAb (CST #3079, 1∶200 in TBS/T) or rabbit anti-human CD31 polyclonal antibody (Santa Cruz Biotech, sc-8306, Santa Cruz, CA, USA; 1∶200 in TBS/T) at 4°C overnight, then incubated in 100 µL DAKO Envision+/HRP, rabbit/mouse after being washed thoroughly with TBS. One hundred micro liters of substrate-chromogenic solution (DAB) were applied to the slides and incubated at room temperature for 10 min. The slides were rinsed gently with tap water for 15 min. Counterstain and dehydration was performed by XL ST5010 at room temperature. Finally, the slides were mounted with Permount mounting medium (Fisher Scientific, Miami, FL).

402 kinases = experiment: KINOMEScan kinase affinity profiling; assay type: binding; details: 1 µM, ATP around Km of each kinase; 359 wild-type kinases and 43 mutants
Method: The affinity of R1498 against 402 kinases was determined by KINOMEScan® (Ambit Biosciences, San Diego, CA) and data were presented as dissociation constant (Kd) values. The inhibition on kinase activity of Aurora kinases and VEGFR2 was further characterized by Z’-Lyte kinase activity assays under corresponding ATP concentrations.

SMILES: COc1ccc2c(c1)C(c1ccccc1Cl)=Nc1c(n[nH]c1C)N2 [R1498]
- Aurora A T288 green foci in mitotic cells (immunofluorescence) ([1]; SGC-7901, 5 µM, 24 h): became weaker or disappeared
- phosphorylation of phospho-Aurora kinase A (T288) (western blot) ([1]; SGC-7901 synchronized with nocodazole, various concentrations, acute treatment): decreased in a concentration-dependent manner
- tumor growth inhibition (GC and HCC xenografts; all test models (GC and HCC xenografts)): > 80%
- TGI% over TGI% of sorafenib (GC and HCC xenografts; gastric cancer xenografts, same schedule): 2–12%
- TGI% more than TGI% of sorafenib (GC and HCC xenografts; hepatocarcinoma xenografts, same schedule): 10–19%
- phospho-Aurora A (T288) staining in tumors (phospho-Aurora A (T288)): weaker staining
- number of kinases with inhibition rate over 80% out of 402 kinases (402 kinases): 39
